89 compounds from a melting point compilation (Tetko et al.; mined from patent text by program, amines drawn as free bases though some values may be those of a salt) can be followed below.

With `CC(C)(C)OC(=O)Nc1cc(N2CCOC2=O)c(-c2ccc(F)cc2)cc1N`, the melting point turned out to be 210 °C.
Take `CC(=O)NC(C)=NC(=Nc1ccccc1)N1CCOCC1`: the melting point fell in the range of 146 to 149 °C.
Compound `COC1(Nc2ccccc2CCCc2ccc(Cl)c(Cl)c2)CC=C(C(=O)O)C=C1[N+](=O)[O-]` (centres undefined) showed a melting point of 127 to 129 °C.
Take `CCOC(=O)C1=C(N)N=C(OCC)C(C(=O)OCC)C1c1cccc(C(=O)OCC)c1` (centres undefined): the melting point was determined as 87 °C.
To `CC(C)CC(C#N)(C#N)Cc1ccc(Cl)cc1` belongs 73.2 °C.
Take `O=C(O)c1coc2ccc3ccc(O)cc3c2c1=O`: the melting point lay within 294 to 296 °C.
`COC(=O)[C@H](CC(=O)c1ccc2oc3ccccc3c2c1)NC(=O)c1ccccc1` gave a melting point of 65 to 70 °C.
The compound `COc1cccc([C@H]2O[C@H](CC(=O)Nc3ccc4oc(C(=O)O)c(OCC(=O)O)c4c3)C(=O)N(CC(C)(C)CO)c3ccc(Cl)cc32)c1OC` yielded a melting point of 193 to 196 °C.
In the case of `COC(C)(C(=S)N(C)C)c1ccccn1` (centres undefined), the melting point was in the range of 67.8 to 70 °C.
`O=c1c2cccnc2c(-c2ccccc2)nn1-c1ccccc1` had a melting point of 174 to 176 °C.
Consider `NC(=O)C(CCc1ccccn1)(c1ccccc1)c1ccccc1`, for which the melting point fell in the range of 145 to 146 °C.
As to `Cc1ccc(-c2ccc3c(c2)C=C(C(=O)O)CC(c2ccccc2)O3)cc1` (centres undefined), the melting point is 296 to 297 °C.
For `COc1cccc(N(C)CCNC(C)=O)c1`, the melting point is 69 to 71 °C.
The compound `COc1cc(Cl)c(/C(=N\O)c2ccccc2F)cc1Cl` returned a melting point of 188 °C.
To `O=S(=O)(c1ccc(O)cc1)c1c(-c2ccccc2)oc2ccccc12` belongs 166 to 168 °C; to `CCCCCc1c(-c2ccc3cc(OCC#N)ccc3c2)n(Cc2ccccc2)c2ccccc12`, 109 to 112 °C.
In turn, `COc1cc(N2CCC(N3CC[C@@H](O)C3)CC2)ccc1[N+](=O)[O-]` yielded a melting point of 137 to 139 °C.
`Clc1ccc(-c2cc(C3CCN(Cc4ccc(Cl)c(Cl)c4)CC3)n[nH]2)cc1` yielded a melting point of 171 to 174 °C.
Compound `Cc1nnsc1C(=O)NCCc1ccccc1` showed a melting point of 64 to 68 °C.
Compound `CCOC(=O)C1c2c([nH]c3ccccc23)C2=C(CCC2)C1C#N` (centres undefined) returned a melting point of 192 to 195 °C.
With `CCOC(=O)c1cc(-n2c(=O)[nH]c3c(c2=O)CSC3)ccc1Cl`, the melting point was 194 to 196 °C.
`Cc1cccc(C(=O)N2CC2C#N)n1` (centres undefined) gave a melting point of 120 to 122 °C.
The result for `CCN(CC)CCC(=O)Nc1ccc(NC(=O)Nc2ccc(N(CCCl)CCCl)cc2)cc1` reads 178 to 179 °C; that for `O=C(NC1CC1)C(Cl)Cl`, 130 to 132 °C.
For `COc1ccc(-c2nccc3c(CC#N)cccc23)cc1`, the melting point fell in the range of 130 to 132 °C.
Take `Nc1n[nH]c2ncnc(Nc3cccc(Cl)c3)c12`: the melting point is 232 to 234 °C.
To `COC(=O)c1ccccc1S(=O)(=O)NC(=O)Nc1n[nH]c(SC)n1` belongs 147 to 153 °C.
To `Cc1[nH]n(C2CCOC2)c2nc(-c3ccncc3)nc(=O)c1-2` (centres undefined) belongs 251 °C; to `COc1ccc(CN2C(=O)C3(COc4cc5c(C)noc5cc43)c3ccccc32)cc1` (centres undefined), 183 to 184 °C; to `Cc1cc(S)n2nc(N)nc2n1`, above 300 °C.
The result for `c1ccc(N(c2ccccc2)c2ccc(-c3ccc(-c4ccnc(Nc5ccc6ccccc6c5)n4)cc3)cc2)cc1` reads above 300 °C; that for `COc1ccc2c(c1)C(=O)C(=Cc1c[nH]c3ccccc13)CO2`, 217 to 219 °C; that for `COc1ccc2c(c1)C(C(=O)O)CCO2` (centres undefined), 97.4 °C.
The compound `CCOC(=O)c1ccc(NCc2cc(Br)ccc2OCc2ccccc2)c(N)c1` yielded a melting point of 135 °C.
The compound `CCCCCCCCCNC(=O)NCC(=O)O` gave a melting point of 144 to 145 °C.
`Cc1nc2c3c(c(CO)cc2n1C)CCC(c1ccccc1)O3` (centres undefined) displayed a melting point of 279 to 281 °C.
The result for `COc1cccc(OC)c1-c1cc2c(ccn2C)c2c1C(=O)NC2=O` reads 285 to 288 °C; that for `CCN(CC)c1nc2cc(C)nn2c2c1cnc1c2cnn1CC`, 106 to 108 °C.
For the compound `O=C1[C@H]2CCC[C@H]2N(C(=O)CCl)c2ccccc2N1Cc1ccccc1` (relative stereo), the melting point lay in the range of 154 to 156 °C.
With `Cc1nc(C(=O)N(C)C)c2n1-c1ccc(Cl)cc1C(c1ccccc1Cl)=NC2`, the melting point was in the range of 225 to 230 °C.
For the compound `C=CC(C)(C)c1c(C=O)c2ccc(Cl)cc2n1COCc1ccccc1`, the melting point worked out at 227 °C.
Take `COc1cc(Br)ccc1OCc1ccc2ccccc2c1`: the melting point was 108 °C.
As for `CC1(C)C=C(c2ccc(C(=O)N3Cc4cccn4Cc4ccccc43)cc2)CC(C)(C)C1`, the melting point lay in the range of 142 to 143 °C.
To `COc1ccc(CCNCC(O)COc2ccc(-c3nc(-c4cccs4)c[nH]3)cc2)cc1OC` (centres undefined) belongs 127 to 129 °C; to `CC(=O)n1c2ccccc2c2ccc(C(=O)CCl)cc21`, 175 to 176 °C; to `Cn1cc(-c2ccccc2)c(=O)c(-c2ccccc2C(F)(F)F)c1`, 168 to 171 °C.
The result for `CCOC(=O)C[C@H]1CC[C@H](CNC(C)=O)CC1` reads 74 to 76 °C; that for `C=CC(c1cn(-c2ccccc2)nc1OCc1ccc(OCc2nc(-c3ccco3)oc2C)c(OC)c1)n1cncn1` (centres undefined), 115 to 116 °C; that for `COc1cc2ncc(C#N)c(Nc3cccc(C(=O)O)c3C)c2cc1OC`, 242 to 245 °C.
Compound `C#CCn1c(=O)n(CCN2CCN(c3ccccc3OC)CC2)c(=O)c2cscc21` came in with a melting point of 142 to 143 °C.
Turning to `CS(=O)(=O)c1cccc(NC(=O)c2cnn3c(C4CC4)cc(-c4ccc(C(F)(F)F)cc4)nc23)c1`, the melting point fell in the range of 231 to 234 °C.
On to `O=Cc1cccc(OCc2nc(-c3ccccc3)c(-c3ccccc3)o2)c1`, for which the melting point was 72 to 75 °C.
In turn, `COCC1CN(c2ccc(C3CCC(OC(=O)c4ccccc4C4=NCCO4)CC3)cc2)C(=O)O1` (racemic) registered a melting point of 182 to 184 °C.
For `CS(=O)(=O)c1ccc(-c2c(-c3ccc(F)cc3)c(OCC(=O)c3cccs3)nn2CC(=O)c2cccs2)cc1`, the melting point fell in the range of 136 to 138 °C.
`Cc1ccc(Cn2c(NC3CCN(CC#N)CC3)nc3ccccc32)o1` showed a melting point of 177 °C.
`COc1cc2c(cc1OC)[C@@H]1CN(C)CC[C@@H]1N=C2c1ccc(NC(=O)c2ccccc2)cc1` (relative stereo) displayed a melting point of 240 to 245 °C.
As to `O=C1Nc2cccnc2N(C(=O)CCl)c2cc(F)ccc21`, the melting point was found to be 230 °C.
As for `O=C(NC1CCCCC1)NS(=O)(=O)c1ccc(CCNC(=O)N2CC3CCCCC3C2=O)cc1` (centres undefined), the melting point was 139 to 140 °C.
Regarding `C=CCc1cc(Cc2cnc(N)nc2N)c2ccc(C)nc2c1OC`, the melting point lay in the range of 219 to 222 °C.
Turning to `CCOC(=O)c1n[nH]cc1-c1ccccc1`, the melting point is 164 to 165 °C.
Compound `CCCOc1ccccc1-c1ccc(C(=O)O)c(=O)[nH]1` returned a melting point of 194 to 196 °C.
Regarding `O=C(O)c1cccc2c1Cc1c-2[nH]c2ccc(I)cc12`, the melting point was 251 °C.
Consider `COc1ccc(CNc2nc(N3CCCC3CO)nc(OC)c2C(=O)NCc2ncccn2)cc1Cl` (centres undefined), for which the melting point lay within 153 to 154 °C.
In turn, `CC(=O)Cc1ccc(-n2ccnc2)cc1` registered a melting point of 71.5 to 72.5 °C.
For the compound `Cn1nc(Oc2ccc([N+](=O)[O-])c(N)c2)cc1C(F)(F)F`, the melting point lay within 91 to 92 °C.
`Cc1cnc2cc(N)ccc2n1` registered a melting point of 163 to 164 °C.
The compound `CCCCCCCCCCCC(=O)OC1CC(c2ccccc2)N(O)C(c2ccccc2)C1` (centres undefined) showed a melting point of 89 to 90 °C.
`CCOC(=O)C(Cc1cnc2ccc(OC)cc2c1)NC(=O)OC(C)(C)C` (centres undefined) returned a melting point of 127 °C.
The result for `CC(=O)C1=C(O)C(=C(C)Nc2cc(NC(=O)C(O)CO)cc(NC(=O)C(O)CO)c2)C(=O)OC1=O` (centres undefined) reads 231 °C; that for `Nc1cnc(Oc2cnc3ccccc3c2)c(Cl)c1`, 156 to 159 °C.
As to `CN1CCC(OC2c3ccccc3CCn3c2nc(I)c3C#N)CC1` (centres undefined), the melting point is 195 °C.
The result for `CCCCCCCCCCCCCCCCCCOc1cccc(C(=O)C(=O)OC)c1` reads 50 to 52 °C.
`OC(CN1CCNC1=S)c1cc(Cl)cc(Cl)c1` (centres undefined) returned a melting point of 158 °C.
For the compound `Cc1cc(OCc2cnc(-c3ccc(C(F)(F)F)cc3)cc2C(F)(F)F)ccc1OC(C)(C)C(=O)O`, the melting point was 148 to 149 °C.
The result for `Cn1c(C#N)c(Br)n(-c2ccc(Cl)cc2)c1=O` reads 185 °C; that for `COc1c(S(N)(=O)=O)cc(C(=O)O)c2c1OCCO2`, 247 to 248 °C; that for `COc1ccc(-n2nc(-c3ccccc3O)nc2-c2ccccc2O)cc1`, 179 to 181 °C.
In the case of `NC(=O)c1ccc(COc2cccc3c2CN(C2CCC(=O)NC2=O)C3=O)cc1` (centres undefined), the melting point is 278 to 280 °C.
`Cn1c(C(F)(F)F)cc(=O)n(-c2ccc(Cl)c(S(N)(=O)=O)c2)c1=O` displayed a melting point of 257 to 258 °C.
Take `COC(=O)C1=CC(=O)CC(c2ccc(Cl)cc2)N1` (centres undefined): the melting point fell in the range of 113 to 114 °C.
Regarding `CON(CCCc1ccc(Cl)c(Cl)c1)C(=O)C1=C(O)C(=O)N(C)C1`, the melting point was 106 to 108 °C.
`CCOP(=O)(Cn1c(=O)c(=O)[nH]c2cc([N+](=O)[O-])ccc21)OCC`: the melting point came to 197 °C.
Compound `COc1ccc(C=Nc2ccc(S(=O)(=O)NC(C)(C)C)cc2)cc1F` came in with a melting point of 129 to 131 °C.
`CCCCC12CCC3=C(CCc4cc(OC)ccc43)C1CCC2O` (centres undefined): the melting point lay within 90 to 100 °C.
For `O=C1CCOc2cc(S)ccc21`, the melting point was in the range of 144 to 145 °C.
To `CC(C)(C)NS(=O)(=O)c1ccc(Cl)cc1C=C1CCOC1=O` belongs 198 to 201 °C; to `O=C(O)C=C(Oc1ccc(OC(F)(F)F)cc1)C(=O)O`, 208 to 210 °C; to `COC(=O)Cc1cc([N+](=O)[O-])ccc1OC`, 92 °C.
The compound `CN(C)CCn1ccc(-c2ccc(F)cc2)c1-c1ccncc1` returned a melting point of 70 to 73 °C.

As usually defined, the melting point is the temperature, or range, at which the solid turns liquid.
